Drawing on patent US11427548B2 (Arvinas Operations, Inc., priority 2015, dated 2022), this text covers DC50 and Dmax for 26 compounds.

For the test, the target named is T1, Androgen Receptor (Homo sapiens, UniProt P10275).
T1 construct: endogenous in cells; host or cells: VCaP cells
T1 sequence (P10275 1-920): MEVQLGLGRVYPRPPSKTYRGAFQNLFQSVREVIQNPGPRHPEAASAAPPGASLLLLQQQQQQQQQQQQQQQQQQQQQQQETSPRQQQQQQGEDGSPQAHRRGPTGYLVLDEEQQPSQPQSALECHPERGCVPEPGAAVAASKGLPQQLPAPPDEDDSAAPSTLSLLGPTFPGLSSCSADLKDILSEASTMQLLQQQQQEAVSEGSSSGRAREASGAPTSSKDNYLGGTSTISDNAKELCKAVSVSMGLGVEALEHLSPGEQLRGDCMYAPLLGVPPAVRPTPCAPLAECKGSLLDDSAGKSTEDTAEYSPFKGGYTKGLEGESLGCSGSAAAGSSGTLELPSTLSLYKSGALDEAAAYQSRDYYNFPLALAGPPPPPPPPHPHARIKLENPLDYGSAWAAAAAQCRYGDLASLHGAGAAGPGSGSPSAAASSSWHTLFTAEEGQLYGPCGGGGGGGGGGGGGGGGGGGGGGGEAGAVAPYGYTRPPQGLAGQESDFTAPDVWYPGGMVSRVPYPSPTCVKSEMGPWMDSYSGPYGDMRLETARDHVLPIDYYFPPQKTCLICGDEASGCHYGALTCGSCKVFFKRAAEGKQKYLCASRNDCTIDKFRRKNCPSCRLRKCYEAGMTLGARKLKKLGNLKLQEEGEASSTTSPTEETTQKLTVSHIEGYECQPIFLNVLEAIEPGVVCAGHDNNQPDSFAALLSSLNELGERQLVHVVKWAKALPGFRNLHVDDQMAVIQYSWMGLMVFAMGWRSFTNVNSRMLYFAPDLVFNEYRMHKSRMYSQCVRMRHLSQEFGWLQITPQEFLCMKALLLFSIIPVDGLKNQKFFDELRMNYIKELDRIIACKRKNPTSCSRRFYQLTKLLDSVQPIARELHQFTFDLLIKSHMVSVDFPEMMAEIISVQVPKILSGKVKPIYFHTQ
Put plainly: Androgen Receptor ELISA assay (PathScan AR ELISA) in VCaP cells: AR degradation, Dmax and DC50. Format: cell-based. The procedure, abridged:
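VCaP cells in phenol red-free RPMI with 5% charcoal-stripped FBS were grown at least 3 days, then given compound as 7 half-log doses in 0.1% DMSO with 0.1 nM R1881 for 24 h. Lysates went into a sandwich AR ELISA with TMB read at 450 nm.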
(In general: An ELISA detects its analyte on a solid surface through an enzyme-linked reagent.)

Setting [1] is: VCaP cells; Table 35; read-out: VCaP DC50.
The mark [2] stands for this setting: VCaP, VCaP cells; Table 35; read-out: VCaP Dmax (%).
Where [3] appears, read: read-out: VCaP DC50; VCaP cells; Table 35.

Read-outs that look alike come from different tables or passages of the source.

Regarding `Cc1ncsc1-c1ccc(CNC(=O)[C@@H]2C[C@@H](O)CN2C(=O)[C@@H](NC(=O)COCCOc2ccc(-c3c(F)cc(C(=O)N[C@H]4C(C)(C)[C@H](Oc5ccc(C#N)c(Cl)c5)C4(C)C)cc3F)cc2)C(C)(C)C)cc1` [Example 543], the DC50 (as a rule, the midpoint of the concentration-degradation curve) under setting [1] was less than 50 nM. Further, the Dmax (usually the greatest extent of degradation seen) under setting [2] was more than 71%. For the compound `Cc1ncsc1-c1ccc(CNC(=O)[C@@H]2C[C@@H](O)CN2C(=O)[C@@H](NC(=O)COCCN2CCN(c3ccc(C(=O)N[C@H]4C(C)(C)[C@H](Oc5ccc(C#N)c(Cl)c5)C4(C)C)cc3)CC2)C(C)(C)C)cc1` [Example 544], the DC50 under setting [1] is less than 50 nM. Moreover, under setting [2], the Dmax is more than 71%.

Take `Cc1ncsc1-c1ccc(CNC(=O)[C@@H]2C[C@@H](O)CN2C(=O)[C@@H](NC(=O)COCCCCOc2ccc(-c3ccc(N4C(=S)N(c5ccc(C#N)c(C(F)(F)F)c5)C(=O)C4(C)C)cc3)cc2)C(C)(C)C(=O)OC(C)(C)C)cc1` [Example 545]: the Dmax (VCaP, read-out: VCaP Dmax (%)) is 51 to 70%. Further, the DC50 under setting [3] is less than 50 nM. Consider `Cc1ncsc1-c1ccc(CNC(=O)[C@@H]2C[C@@H](O)CN2C(=O)[C@@H](NC(=O)COCCCCOc2ccc(-c3ccc(N4C(=S)N(c5ccc(C#N)c(C(F)(F)F)c5)C(=O)C4(C)C)cc3)cc2)C(C)(C)C(=O)O)cc1` [Example 546], for which the DC50 under setting [3] was more than 501 nM. Regarding `CC(C)(C)[C@H](NC(=O)COCCCCNc1ccc(C(=O)N[C@H]2C(C)(C)[C@H](Oc3ccc(C#N)c(Cl)c3)C2(C)C)cc1)C(=O)N1C[C@H](O)C[C@H]1C(=O)NCc1ccc(C#N)cc1` [Example 547], the DC50 under setting [1] was less than 50 nM. Moreover, the Dmax under setting [2] was in the range of 51 to 70%.

As to `C[C@H](NC(=O)[C@@H]1C[C@@H](O)CN1C(=O)[C@@H](NC(=O)COCCCCOc1ccc(C(=O)N[C@H]2C(C)(C)[C@H](Oc3ccc(C#N)c(Cl)c3)C2(C)C)cc1)C(C)(C)C)c1ccc(C#N)cc1` [Example 548], under setting [1], the 50% degradation concentration (DC50) is less than 50 nM. The Dmax under setting [2] was 51 to 70%.

Take `C[C@H](NC(=O)[C@@H]1C[C@@H](O)CN1C(=O)[C@@H](NC(=O)COCCOc1ccc(-c2ccc(C(=O)N[C@H]3C(C)(C)[C@H](Oc4ccc(C#N)c(Cl)c4)C3(C)C)cc2)cc1)C(C)(C)C)c1ccc(C#N)cc1` [Example 549]: the DC50 under setting [1] was less than 50 nM. For the same compound, the Dmax under setting [2] was more than 71%. `CC(C)(C)[C@H](NC(=O)COCCOc1ccc(-c2ccc(C(=O)N[C@H]3C(C)(C)[C@H](Oc4ccc(C#N)c(Cl)c4)C3(C)C)cc2)cc1)C(=O)N1C[C@H](O)C[C@H]1C(=O)NCc1ccc(C#N)cc1` [Example 550]: the DC50 under setting [1] is less than 50 nM. For the same compound, the Dmax under setting [2] was more than 71%.

As to `CC(C)(C)[C@H](NC(=O)COCCCCCNc1ccc(C(=O)N[C@H]2C(C)(C)[C@H](Oc3ccc(C#N)c(Cl)c3)C2(C)C)cn1)C(=O)N1C[C@H](O)C[C@H]1C(=O)NCc1ccc(C#N)cc1` [Example 551], the DC50 under setting [1] was less than 50 nM. In addition, the Dmax under setting [2] is 51 to 70%. With `CC(C)(C)[C@H](NC(=O)COCCCCCNc1ccc(C(=O)N[C@H]2C(C)(C)[C@H](Oc3ccc(C#N)c(Cl)c3)C2(C)C)cc1)C(=O)N1C[C@H](O)C[C@H]1C(=O)NCc1ccc(Cl)cc1` [Example 552], under setting [1], the DC50 is less than 50 nM. The Dmax under setting [2] lay within 51 to 70%. `Cc1ncsc1-c1ccc(CNC(=O)[C@@H]2C[C@@H](O)CN2C(=O)[C@@H](NC(=O)COCCNc2ccc(-c3ccc(C(=O)N[C@H]4C(C)(C)[C@H](Oc5ccc(C#N)c(Cl)c5)C4(C)C)cc3)cn2)C(C)(C)C)cc1` [Example 553]: the DC50 under setting [1] was less than 50 nM. Moreover, the Dmax under setting [2] was more than 71%.

Consider `Cc1ncsc1-c1ccc(CNC(=O)[C@@H]2C[C@@H](O)CN2C(=O)[C@@H](NC(=O)COCCCCNc2ccc(-c3ccc(N4C(=S)N(c5ccc(C#N)c(C(F)(F)F)c5)C(=O)C4(C)C)cc3)cn2)C(C)(C)C)cc1` [Example 554], for which the maximal degradation (Dmax) (VCaP, read-out: VCaP Dmax (%)) lay within 51 to 70%. The 50% degradation concentration (DC50) under setting [3] is less than 50 nM. In the case of `CC(C)(C)[C@H](NC(=O)COCCCCCNc1ccc(C(=O)N[C@H]2C(C)(C)[C@H](Oc3ccc(C#N)c(Cl)c3)C2(C)C)cc1)C(=O)N1C[C@H](O)C[C@H]1C(=O)NCc1ccc(-c2scnc2C2CC2)cc1` [Example 555], the 50% degradation concentration (DC50) under setting [1] was less than 50 nM. For the same compound, under setting [2], the Dmax is more than 71%. In the case of `CC(C)c1ncsc1-c1ccc(CNC(=O)[C@@H]2C[C@@H](O)CN2C(=O)[C@@H](NC(=O)COCCCCCNc2ccc(C(=O)N[C@H]3C(C)(C)[C@H](Oc4ccc(C#N)c(Cl)c4)C3(C)C)cc2)C(C)(C)C)cc1` [Example 556], the DC50 under setting [1] was less than 50 nM. For the same compound, the Dmax under setting [2] was more than 71%. With `Cc1ncsc1-c1ccc([C@H](C)NC(=O)[C@@H]2C[C@@H](O)CN2C(=O)[C@@H](NC(=O)COC[C@H](O)[C@@H](O)COc2ccc(-c3ccc(N4C(=S)N(c5ccc(C#N)c(C(F)(F)F)c5)C(=O)C4(C)C)cc3)cc2)C(C)(C)C)cc1` [Example 559], for the setting “VCaP, read-out: VCaP Dmax (%)”, the Dmax was more than 71%. Further, the DC50 under setting [3] was less than 50 nM. Turning to `Cc1ncsc1-c1ccc(CNC(=O)[C@@H]2C[C@@H](O)CN2C(=O)[C@@H](NC(=O)COC[C@@H](O)[C@H](O)COc2ccc(C(=O)N[C@H]3C(C)(C)[C@H](Oc4ccc(C#N)c(Cl)c4)C3(C)C)cc2)C(C)(C)C)cc1` [Example 563], under setting [1], the DC50 is less than 50 nM. In addition, under setting [2], the Dmax lay in the range of 51 to 70%. As for `Cc1ncsc1-c1ccc(CNC(=O)[C@@H]2C[C@@H](O)CN2C(=O)[C@@H](NC(=O)COC[C@H]2C[C@H](Oc3ccc(C(=O)N[C@H]4C(C)(C)[C@H](Oc5ccc(C#N)c(Cl)c5)C4(C)C)cc3)C2)C(C)(C)C)cc1` [Example 564], under setting [1], the DC50 was less than 50 nM. Also, under setting [2], the Dmax was more than 71%. Consider `Cc1ncsc1-c1ccc(CNC(=O)[C@@H]2C[C@@H](O)CN2C(=O)[C@@H](NC(=O)COC[C@H]2C[C@H](Oc3ccc(-c4ccc(N5C(=S)N(c6ccc(C#N)c(C(F)(F)F)c6)C(=O)C5(C)C)cc4)cc3)C2)C(C)(C)C)cc1` [Example 565], for which the Dmax (VCaP, read-out: VCaP Dmax (%)) is more than 71%. For the same compound, the DC50 under setting [3] is less than 50 nM.

Turning to `Cc1ncsc1-c1ccc(CNC(=O)[C@@H]2C[C@@H](O)CN2C(=O)[C@@H](NC(=O)COC[C@@H](O)[C@H](O)COc2ccc(-c3ccc(N4C(=S)N(c5ccc(C#N)c(C(F)(F)F)c5)C(=O)C4(C)C)cc3)cc2)C(C)(C)C)cc1` [Example 566], the Dmax (VCaP, read-out: VCaP Dmax (%)) lay in the range of 51 to 70%. The DC50 under setting [3] is less than 50 nM. For `Cc1ncsc1-c1ccc(CNC(=O)[C@@H]2C[C@@H](O)CN2C(=O)[C@@H](NC(=O)COC[C@H](O)[C@@H](O)COc2ccc(-c3ccc(N4C(=S)N(c5ccc(C#N)c(C(F)(F)F)c5)C(=O)C4(C)C)cc3)cc2)C(C)(C)C)cc1` [Example 567] the same measures were more than 71% and less than 50 nM.

As for `CC(C)(C)[C@H](NC(=O)COCCCCOc1ccc(C(=O)N[C@H]2C(C)(C)[C@H](Oc3ccc(C#N)c(Cl)c3)C2(C)C)cc1)C(=O)N1C[C@H](O)C[C@H]1C(=O)NCc1ccc(-n2cccn2)cc1` [Example 568], the DC50 under setting [1] is less than 50 nM. The maximal degradation (Dmax) under setting [2] is more than 71%. Take `C[C@H](NC(=O)[C@@H]1C[C@@H](O)CN1C(=O)[C@@H](NC(=O)COCCCCOc1ccc(C(=O)N[C@H]2C(C)(C)[C@H](Oc3ccc(C#N)c(Cl)c3)C2(C)C)cc1)C(C)(C)C)c1ccc(-c2ncon2)cc1` [Example 569]: the 50% degradation concentration (DC50) under setting [1] is less than 50 nM. Further, the Dmax under setting [2] is more than 71%. Consider `C[C@H](NC(=O)[C@@H]1C[C@@H](O)CN1C(=O)[C@@H](NC(=O)COCCCCOc1ccc(C(=O)N[C@H]2C(C)(C)[C@H](Oc3ccc(C#N)c(Cl)c3)C2(C)C)cc1)C(C)(C)C)c1ccc(-c2nncs2)cc1` [Example 570], for which, under setting [1], the DC50 is less than 50 nM. Further, the Dmax under setting [2] was more than 71%. `CC(C)(C)[C@H](NC(=O)COCCCCOc1ccc(-c2ccc(N3C(=S)N(c4cnc(C#N)c(C(F)(F)F)c4)C(=O)C3(C)C)cc2)cc1)C(=O)N1C[C@H](O)C[C@H]1C(=O)NCc1ccc(C#N)cc1` [Example 571]: the DC50 under setting [1] was less than 50 nM. The Dmax under setting [2] was more than 71%. In the case of `C[C@H](NC(=O)[C@@H]1C[C@@H](O)CN1C(=O)[C@@H](NC(=O)COCCCCOc1ccc(C(=O)N[C@H]2C(C)(C)[C@H](Oc3ccc(C#N)c(Cl)c3)C2(C)C)cc1)C(C)(C)C)c1ccc(Cl)cc1` [Example 572], the DC50 under setting [1] is less than 50 nM. Further, the Dmax under setting [2] is more than 71%. For the compound `CC(C)(C)[C@H](NC(=O)COCCOc1ccc(-c2ccc(C(=O)N[C@H]3C(C)(C)[C@H](Oc4ccc(C#N)c(Cl)c4)C3(C)C)cc2)cc1)C(=O)N1C[C@H](O)C[C@H]1C(=O)NCc1ccc(Cl)cc1` [Example 573], the 50% degradation concentration (DC50) under setting [1] was more than 501 nM. In addition, the Dmax under setting [2] lay in the range of 51 to 70%.
